The values that follow are results of earlier work, collected in patent publication US8278324B2, “Oxadiazole derivatives active on sphingosine-1-phosphate (S1P)” (Glaxo Group Limited, priority 2007, dated 2012).

Data set [1] deals with circulating lymphocytes. The note with it: animals and man.
The conditions of data set [2]: clinical studies, first 24 hours of treatment.

As to `CCCCCCCCc1ccc(CCC(N)(CO)CO)cc1` [FTY720], the “effect on circulating lymphocytes” value in data set [1] is recorded as “reduce circulating lymphocytes”. In addition, the bradycardia result in data set [2] is “results in bradycardia”.
